Measurements as given in ChEMBL document CHEMBL3045758, “Quantitative Structure-Activity Relationships of Fungicidal N-Phenylformamidoximes” (J Pestic Sci, 1992).

Key:
Phaseolus vulgaris = assay: Phytotoxicity against Phaseolus vulgaris (kidney bean) assessed as necrosis of leaf at 100 ppm after 7 days in greenhouse conditions; assay type: organism-based; conditions: in vivo, 168 h
Botrytis cinerea [1] = assay: Fungicidal activity against benzimidazole-resistant Botryotinia fuckeliana after 48 hr by poisoned food technique; assay type: functional, organism-based; conditions: Botrytis cinerea, 48 h; read-out: pEC50 (converted)
[2] = 1-octanol/water distribution coefficient, log P of the compound; assay type: physicochemical
Botrytis cinerea [3] = assay: Fungicidal activity against benzimidazole-resistant Botryotinia fuckeliana infected kidney bean leaf at 100 ppm after 7 days in greenhouse conditions by detached leaf test; assay type: functional
Botrytis cinerea [4] = assay: Fungicidal activity against benzimidazole-resistant Botryotinia fuckeliana at 6.2 ppm after 48 hr by poisoned food technique; assay type: functional
Botrytis cinerea [5] = assay: Fungicidal activity against benzimidazole-resistant Botryotinia fuckeliana at 200 ppm after 48 hr by poisoned food technique; assay type: functional
Botrytis cinerea [6] = assay: Fungicidal activity against benzimidazole-resistant Botryotinia fuckeliana at 25 ppm after 48 hr by poisoned food technique; assay type: functional

| SMILES | Activity (Phaseolus vulgaris) | EC50 (Botrytis cinerea [1]) [nM] | logP [2] | Activity (Botrytis cinerea [3]) [%] | Activity (Botrytis cinerea [4]) [%] | Activity (Botrytis cinerea [5]) [%] | Activity (Botrytis cinerea [6]) [%] |
| --- | --- | --- | --- | --- | --- | --- | --- |
| C#CCc1c(Cl)cc(N/C=N/OC(C)C)cc1Cl | Non-toxic | 33.1 | 3.9 |  |  |  |  |
| C#CCc1c(Cl)cc(N/C=N/OCC=C)cc1Cl | Non-toxic | 67.6 | 3.7 |  |  |  |  |
| C#CCO/N=C/Nc1cc(Cl)c(CC#C)c(Cl)c1 | Non-toxic | 33.9 | 3.3 |  |  |  |  |
| C#CCc1c(Cl)cc(N/C=N/OCCCC)cc1Cl | Non-toxic | 316 | 4.4 |  |  |  |  |
| C#CCc1c(Cl)cc(N/C=N/OC(C)CC)cc1Cl (stereo unspecified) | Non-toxic | 158 | 4.2 |  |  |  |  |
| C#CCc1c(Cl)cc(N/C=N/OCC#N)cc1Cl | Non-toxic | 33.9 | 3 |  |  |  |  |
| C#CCc1c(Cl)cc(N/C=N/OCOC)cc1Cl | Non-toxic | 33.1 | 3.2 |  |  |  |  |
| C#CCc1c(Cl)cc(N/C=N/OCSC)cc1Cl | Non-toxic | 31.6 | 3.6 |  |  |  |  |
| C#CCc1c(Cl)cc(N/C=N/OCOCC)cc1Cl | Non-toxic | 63.1 | 3.5 |  |  |  |  |
| C#CCc1c(Cl)cc(N/C=N/OCC(=O)OCC)cc1Cl | Non-toxic | 1450 | 3.6 |  |  |  |  |
| C#CCc1c(Cl)cc(N/C=N/OCCCl)cc1Cl | Non-toxic | 30.9 | 3.7 |  |  |  |  |
| C#CCc1c(Cl)cc(N/C=N/OCCOCC)cc1Cl | Non-toxic | 60.3 | 3.7 |  |  |  |  |
| C#CCc1c(Cl)cc(N/C=N/OC/C=C\Cl)cc1Cl | Non-toxic | 60.3 | 3.9 |  |  |  |  |
| C#CCc1c(Cl)cc(N/C=N/OC/C=C/Cl)cc1Cl | Non-toxic | 302 | 3.9 |  |  |  |  |
| C#CCc1c(Cl)cc(N/C=N/OCc2ccccc2)cc1Cl | Non-toxic | 2880 | 4.2 |  |  |  |  |
| C#CCc1c(Cl)cc(N/C=N/Oc2ccccc2)cc1Cl | Non-toxic | 295 | 4.4 |  |  |  |  |
| C#CCc1c(Cl)cc(N/C=N/Oc2ccc(C)cc2)cc1Cl | Non-toxic | 851 | 4.8 |  |  |  |  |
| CCO/N=C/Nc1ccc(OCC)c(OCC)c1 | Non-toxic |  |  | 50 | 26 | 100 | 70 |
| CCO/N=C/Nc1cc(Cl)c(OCC)c(Cl)c1OCC | Non-toxic |  |  | <25 | <25 | 50 | <25 |
| CCO/N=C/Nc1cc(Cl)c(F)c(Cl)c1 | <= 10% | 794 | 4 |  |  |  |  |
| CCO/N=C/Nc1cc(Cl)c(CC)c(Cl)c1 | Non-toxic | 389 | 4.8 |  |  |  |  |
| CCCCc1c(Cl)cc(N/C=N/OCC)cc1Cl | Non-toxic | 1740 | 5.6 |  |  |  |  |
| CCO/N=C/Nc1cc(Cl)c(SCC)c(Cl)c1 | Non-toxic | 170 | 4.6 |  |  |  |  |
| CCO/N=C/Nc1cc(Cl)c(SSCC)c(Cl)c1 | Non-toxic | 617 | 5 |  |  |  |  |
| CCO/N=C/Nc1cc(Cl)c([S+]([O-])CC)c(Cl)c1 (stereo unspecified) | Non-toxic | 162000 | 2.9 |  |  |  |  |

| SMILES | Activity (Phaseolus vulgaris) | EC50 (Botrytis cinerea [1]) [nM] | logP [2] | Activity (Botrytis cinerea [3]) [%] | Activity (Botrytis cinerea [4]) [%] | Activity (Botrytis cinerea [5]) [%] | Activity (Botrytis cinerea [6]) [%] |
| --- | --- | --- | --- | --- | --- | --- | --- |
| CCO/N=C/Nc1cc(Cl)c(S(=O)(=O)CC)c(Cl)c1 | <= 10% | 30900 | 2.8 |  |  |  |  |
| CCO/N=C/Nc1cc(Cl)c(O)c(Cl)c1 | Non-toxic | 794 | 2.8 |  |  |  |  |
| CCO/N=C/Nc1cc(Cl)c(OC)c(Cl)c1 | Non-toxic | 191 | 3.7 |  |  |  |  |
| CCCOc1c(Cl)cc(N/C=N/OCC)cc1Cl | Non-toxic | 174 | 4.6 |  |  |  |  |
| CCO/N=C/Nc1cc(Cl)c(OC(C)C)c(Cl)c1 | <= 10% | 6920 | 4.4 |  |  |  |  |
| C=CCOc1c(Cl)cc(N/C=N/OCC)cc1Cl | Non-toxic | 34.7 | 4.3 |  |  |  |  |
| C#CCOc1c(Cl)cc(NC=NOCC)cc1Cl | Non-toxic | 17.4 | 3.6 |  |  |  |  |
| CCO/N=C/Nc1cc(Cl)c(OCC(C)C)c(Cl)c1 | <= 10% | 16200 | 5 |  |  |  |  |
| CC#CCOc1c(Cl)cc(N/C=N/OCC)cc1Cl | Non-toxic | 166 | 4 |  |  |  |  |
| CCO/N=C/Nc1cc(Cl)c(OCC#N)c(Cl)c1 | Non-toxic | 174 | 3.1 |  |  |  |  |
| CCO/N=C/Nc1cc(Cl)c(OCOC)c(Cl)c1 | Non-toxic | 174 | 3.7 |  |  |  |  |
| CCO/N=C/Nc1cc(Cl)c(OCCCl)c(Cl)c1 | Non-toxic | 32.4 | 4 |  |  |  |  |
| C#CCc1c(Cl)cc(N/C=N/O)cc1Cl | Non-toxic | 77.6 | 2.8 |  |  |  |  |
| C#CCc1c(Cl)cc(N/C=N/OCCC)cc1Cl | Non-toxic | 33.1 | 4 |  |  |  |  |
| CCO/N=C/Nc1ccccc1OCC | Non-toxic |  |  | <25 | <25 | 100 | 100 |
| CCO/N=C/Nc1cccc(OCC)c1 | Non-toxic |  |  | <25 | <25 | 100 | 26 |
| CCO/N=C/Nc1ccc(OCC)cc1 | Non-toxic |  |  | <25 | <25 | 50 | <25 |
| CCO/N=C/Nc1cccc(Cl)c1Cl | 11% |  |  | <25 | <25 | 100 | <25 |
| CCO/N=C/Nc1ccc(Cl)cc1Cl | <= 10% |  |  | <25 | <25 | 100 | <25 |
| CCO/N=C/Nc1cc(Cl)ccc1Cl | Non-toxic |  |  | <25 | <25 | 70 | <25 |
| CCO/N=C/Nc1c(Cl)cccc1Cl | > 31% |  |  | <25 | <25 | 90 | <25 |
| CCO/N=C/Nc1ccc(Cl)c(Cl)c1 | 11% |  |  | <25 | <25 | 70 | <25 |
| CCO/N=C/Nc1c(C)cccc1C | 11% |  |  | <25 | <25 | <25 | <25 |
| CCO/N=C/Nc1cc(C)cc(C)c1 | Non-toxic |  |  | <25 | <25 | 90 | <25 |
| CCO/N=C/Nc1cc(OCC)ccc1OCC | Non-toxic |  |  | <25 | 70 | 100 | 100 |
